Several values for one entry are separate records, joined by “and”; a condition that tells them apart may be missing. Equal values may be shown once. Read-outs that look alike come from different tables or passages of the source.
Experiments:
[1] = biological target: T1, OAT4 (Homo sapiens, UniProt Q9NSA0); experiment: [14C]-urate uptake by OAT4-expressing Xenopus oocytes; type: cell-based; conditions: for Inhibition of OAT4-mediated urate uptake: drug 100 μmol/L
T1 sequence (Q9NSA0 1-550): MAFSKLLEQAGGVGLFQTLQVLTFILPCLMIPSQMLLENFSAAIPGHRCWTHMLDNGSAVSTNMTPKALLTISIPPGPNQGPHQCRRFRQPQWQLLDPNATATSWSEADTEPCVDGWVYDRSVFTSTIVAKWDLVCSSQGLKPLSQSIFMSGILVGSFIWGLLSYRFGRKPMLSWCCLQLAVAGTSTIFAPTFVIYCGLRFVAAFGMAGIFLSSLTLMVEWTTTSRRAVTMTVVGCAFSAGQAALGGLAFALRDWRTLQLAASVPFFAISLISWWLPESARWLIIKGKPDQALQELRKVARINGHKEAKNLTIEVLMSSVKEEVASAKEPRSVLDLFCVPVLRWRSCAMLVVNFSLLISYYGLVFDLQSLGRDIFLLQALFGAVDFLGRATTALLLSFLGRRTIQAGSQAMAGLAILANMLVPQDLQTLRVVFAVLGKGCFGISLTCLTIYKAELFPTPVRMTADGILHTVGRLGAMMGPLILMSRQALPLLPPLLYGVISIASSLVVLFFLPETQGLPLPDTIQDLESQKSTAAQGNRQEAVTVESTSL
Procedure: (§1) For uptake experiments, oocytes were washed four times with ND96 medium (pH 7.4) without pyruvate and gentamycin.
(A) The uptake of [^14C]‐urate by OAT4‐expressing oocytes was performed in ND96 medium (pH 7.4) at ~25°C for 1 h. Na^+‐dependence was examined by replacing extracellular NaCl by KCl. […] (B) The inhibition of [^14C]‐urate uptake by OAT4 was examined in the presence of extracellular organic anions (for cis‐inhibition) or uricosuric drugs at the indicated concentrations. […] Data are mean ± S.E. with n = 12–15.

[2] = biological target: T2, GLUT9a (Homo sapiens, UniProt Q9NRM0); experiment: [14C]-urate uptake by GLUT9a-expressing Xenopus oocytes; type: cell-based; conditions: for IC50: 40 μmol/L urate, NaCl medium, read-out: IC50, GLUT9a-mediated [14C]-urate uptake
T2 sequence (Q9NRM0 1-540): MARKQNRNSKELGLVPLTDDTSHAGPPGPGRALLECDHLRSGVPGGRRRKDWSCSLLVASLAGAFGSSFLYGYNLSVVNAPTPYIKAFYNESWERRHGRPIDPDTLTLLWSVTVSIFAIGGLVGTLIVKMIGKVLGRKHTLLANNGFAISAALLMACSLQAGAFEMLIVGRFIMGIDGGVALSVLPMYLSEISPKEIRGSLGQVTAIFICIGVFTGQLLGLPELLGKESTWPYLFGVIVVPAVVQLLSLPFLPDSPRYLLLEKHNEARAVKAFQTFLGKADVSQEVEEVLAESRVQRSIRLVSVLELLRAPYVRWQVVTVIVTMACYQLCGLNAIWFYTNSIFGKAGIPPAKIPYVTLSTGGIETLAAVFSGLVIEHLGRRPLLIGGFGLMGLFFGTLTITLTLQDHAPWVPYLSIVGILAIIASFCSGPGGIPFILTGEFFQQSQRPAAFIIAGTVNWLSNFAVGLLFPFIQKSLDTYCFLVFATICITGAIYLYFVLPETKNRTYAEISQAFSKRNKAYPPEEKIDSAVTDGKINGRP
Excerpt: as §1
We sought to investigate the effect of tranilast on GLUT9a‐mediated [^14C]‐urate uptake in Xenopus laevis oocytes.

[3] = biological target: T3, ABCG2 (Homo sapiens, UniProt Q9UNQ0); experiment: [14C]-urate efflux from ABCG2-expressing Xenopus oocytes
T3 sequence (Q9UNQ0 1-655): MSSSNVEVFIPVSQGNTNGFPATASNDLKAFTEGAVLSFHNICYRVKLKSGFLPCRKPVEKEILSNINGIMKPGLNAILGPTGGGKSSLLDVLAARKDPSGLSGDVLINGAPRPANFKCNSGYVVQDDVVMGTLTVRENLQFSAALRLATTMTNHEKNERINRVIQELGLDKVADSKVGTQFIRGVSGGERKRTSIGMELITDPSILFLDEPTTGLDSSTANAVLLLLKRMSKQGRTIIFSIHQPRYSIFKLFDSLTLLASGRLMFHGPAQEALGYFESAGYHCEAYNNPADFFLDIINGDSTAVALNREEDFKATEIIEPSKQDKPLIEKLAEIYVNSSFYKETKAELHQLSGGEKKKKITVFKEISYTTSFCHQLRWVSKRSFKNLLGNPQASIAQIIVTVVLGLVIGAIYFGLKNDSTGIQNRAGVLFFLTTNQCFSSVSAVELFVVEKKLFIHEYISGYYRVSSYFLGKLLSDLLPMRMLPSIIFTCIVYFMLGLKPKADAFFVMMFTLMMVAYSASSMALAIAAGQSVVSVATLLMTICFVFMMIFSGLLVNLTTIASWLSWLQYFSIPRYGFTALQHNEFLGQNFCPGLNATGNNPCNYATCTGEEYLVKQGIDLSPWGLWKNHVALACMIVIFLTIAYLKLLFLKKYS
Procedure: In brief, a small incision was made in the abdomen and a lobe of ovary was removed. […] Oocytes were then defolliculated by treatment with 3.5 mg/mL collagenase A (Roche, Indianapolis, IN) in Ca^2+‐free ND96 medium for 60–70 min with gentle agitation at room temperature (25°C).
The indicated full‐length cDNAs were subcloned into the pGEMHE oocyte expression plasmid, 3′ of a T7 promoter and flanked by Xenopus laevis‐specific 5′‐ and 3′‐UTRs. Plasmid DNA was linearized at the 3′‐end of cDNAs by Not1, Nhe1, or EcoR1 digestion, and cRNA was in vitro transcribed by using T7 RNA polymerase (mMESSAGE mMACHINE; Ambion, Austin, TX) following the suppliers protocol. Isopropanol‐precipitated, in vitro transcribed capped cRNA was washed with 70% ethanol, dried and then dissolved in sterile nuclease‐free water. The yield and RNA integrity of the capped cRNA samples were assessed by spectroscopy (at 260 nm) and 1% agarose‐formaldehyde gel electrophoresis, respectively. All cRNA samples were stored frozen in aliquots at −80°C until used. About 18 h after isolation, oocytes were injected with 50 nL of sterile water, 50 mmol/L tris pH 7.4, or 50 nL of a cRNA solution in 50 mmol/L tris buffer (pH 7.4) containing 25 ng of the indicated cRNA using fine‐tipped micropipettes by a microinjector (World Precision Instrument Inc. Sarasota, FL).
Preinjected oocytes were then incubated in ND96 medium for 1 h at 16°C for recovery. After incubation, the oocytes were washed in cold ND96 medium four times to remove any external adhering [^14C]‐urate from the oocytes and then subjected to efflux for 1 h at room temperature (~25°C) in ND96 medium (pH 7.4) in the absence or presence of drug.
Radioisotope content of each individual oocyte was measured by scintillation counter after solubilization in 0.3 mL of 10% (v/v) SDS and addition of 2.5 mL of scintillation fluid. […] Statistical analyses including linear regressions were done using SigmaPlot software.
We investigated the effect of tranilast (added in the efflux assay medium) on the [^14C]‐urate efflux activity of ABCG2 expressed in Xenopus laevis oocytes. […]

[4] = biological target: T4, NPT1 (Homo sapiens, UniProt Q14916); experiment: [14C]-urate uptake by NPT1-expressing Xenopus oocytes; type: cell-based
T4 sequence (Q14916 1-467): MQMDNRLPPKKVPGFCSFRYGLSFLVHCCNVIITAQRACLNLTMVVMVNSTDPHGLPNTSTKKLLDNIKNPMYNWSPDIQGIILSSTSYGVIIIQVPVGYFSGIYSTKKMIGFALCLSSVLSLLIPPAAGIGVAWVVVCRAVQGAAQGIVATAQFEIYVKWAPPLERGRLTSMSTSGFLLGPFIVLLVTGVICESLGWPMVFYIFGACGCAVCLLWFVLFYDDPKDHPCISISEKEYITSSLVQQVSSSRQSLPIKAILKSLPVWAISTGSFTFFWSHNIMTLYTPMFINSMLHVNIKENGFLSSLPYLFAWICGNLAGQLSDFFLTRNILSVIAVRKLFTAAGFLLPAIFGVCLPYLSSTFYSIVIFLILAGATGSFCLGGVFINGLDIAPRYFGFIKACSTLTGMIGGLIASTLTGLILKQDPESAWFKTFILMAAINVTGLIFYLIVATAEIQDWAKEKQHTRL
Procedure: as §1
The uptake of [^14C]‐urate by NPT1‐expressing oocytes was performed in ND96 medium (pH 7.4) at ~25°C for 1 h. […] Data are mean ± S.E. with n = 12–15.

[5] = human, Xenopus laevis oocytes expressing ABCG2, pH 7.4, probe [14C]-urate

In the case of `COc1ccc(C=CC(=O)Nc2ccccc2C(=O)O)cc1OC` [tranilast, N‐(3,4‐dimethoxycinnamoyl) anthranilic acid], the IC50 ([1]; data not shown) is reported as roughly 22 µM, the “Inhibition of OAT4-mediated urate uptake” value [1] is reported as “very efficiently inhibited” and the “GLUT9a urate transport inhibition after washing and removal of inhibitor” value [2] is reported as “almost no inhibition”. The “Inhibition of GLUT9a urate uptake” value [2] was “efficiently inhibited”, the “Vmax of GLUT9a-mediated urate uptake” value [2] was 108.4 pmoles/oocyte/h and 61 pmoles/oocyte/h and the “mode of inhibition of GLUT9a-mediated urate transport” value [2] was “noncompetitive (mixed) inhibition”. For the same compound, the IC50 [2] was roughly 15.6 µM, the Ki ([2]; Eadie-Hofstee analysis, read-out: inhibition constant (Ki) for GLUT9a-mediated urate uptake) was 17.1 ± 1.3 µM and the “IC50 for GLUT9a under membrane depolarization” value ([2]; depolarized vs polarized, data not shown) was “remained unchanged”. For the same compound, the “Effect on ABCG2-mediated urate efflux” value ([3]; drug 100 μmol/L, efflux 1 h) was “remained unaffected”, the IC50 ([4]; data not shown, read-out: IC50, [14C]-urate uptake by NPT1) was roughly 18.9 µM and the “Inhibition of NPT1-mediated urate uptake” value ([4]; drug 100 μmol/L) was “effectively inhibited”.

In the case of `CCc1oc2ccccc2c1C(=O)c1cc(Br)c(O)c(Br)c1` [benzbromarone], the “Inhibition of OAT4-mediated urate uptake” value [1] is reported as “very efficiently inhibited”, the “GLUT9a urate transport inhibition after washing and removal of inhibitor” value [2] is reported as “substantially inhibited” and the “Inhibition of GLUT9a urate uptake” value [2] is reported as “efficiently inhibited”. For the same compound, the “Reversibility of GLUT9a inhibition” value [2] was “not reversible”, the IC50 [2] was roughly 14.2 µM and the inhibition at 1 h, 100 μmol/L [3, 5] was roughly 48%. For the same compound, the IC50 [4] was roughly 17.1 µM and the “Inhibition of NPT1-mediated urate uptake” value ([4]; drug 100 μmol/L) was “effectively inhibited”.

For `CCCN(CCC)S(=O)(=O)c1ccc(C(=O)O)cc1` [probenecid], the inhibition at 1000 µM ([1]; read-out: Inhibition of OAT4-mediated urate uptake) was 80%, the inhibition at 1000 µM ([2]; drug 1.0 mmol/L) was roughly 60% and the “Reversibility of GLUT9a inhibition” value ([2]; washout in oocytes) was “not reversible”. For the same compound, the inhibition at 1 h, 1 mmol/L [3, 5] was roughly 20% and the “Inhibition of NPT1-mediated urate uptake” value ([4]; drug 1.0 mmol/L) was “only partially inhibited”.

— PMC5368959, “Uricosuric targets of tranilast” (Pharmacology Research & Perspectives, 2017)
